# Measurements as given in article PMC3315146 (The Journal of General Physiology, 2012).
# Changes are numbered by the printed parent chain.
# How the values were obtained:
# Kcv L70C = target: T1, Kcv L70C (Paramecium bursaria Chlorella virus 1, UniProt Q84568, L70C); test: MTSET cysteine modification, single-channel conductance of L70C; type: biochemical, chlorella virus PBCV-1; settings: for conductance reduced by: L70C, 0.2 mM cis MTSET for 5 min
# T1 sequence (Q84568 1-94 L70C): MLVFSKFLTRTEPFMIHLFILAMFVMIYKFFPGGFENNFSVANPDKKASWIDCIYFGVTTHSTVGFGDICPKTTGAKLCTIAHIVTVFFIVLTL
# wt-Kcv = target: T2, wt-Kcv (Paramecium bursaria Chlorella virus 1, UniProt Q84568); test: MTSET control, single-channel conductance of wt-Kcv; type: biochemical, chlorella virus PBCV-1; settings: 0.2 mM cis MTSET
# T2 sequence (Q84568 1-94): T1 sequence (Q84568 1-94 L70C) with C70L
# KcsA Y82C = settings: reverse direction unchanged, ref Heginbotham et al., 1999; cited from earlier work
compound,measurement,setting,value
"C[N+](C)(C)CCSS(C)(=O)=O [MTSET, (2-(trimethylammonium)ethyl) methanethiosulfonate]",conductance reduced by,Kcv L70C; 60 mV,30%
same,conductance reduced by,Kcv L70C; −60 mV,78%
same,effect on conductance,Kcv L70C; MTSET added in the trans solution (not depicted),not found to reduce the conductance
same,conductance change,wt-Kcv,did not observe the conductance change
same,reduction of cis to trans current,KcsA Y82C,60%
